Measured values taken from patent EP4480314A1, “BENEFICIAL SALTS FOR ENHANCING BIOCONTROL EFFICACY OF FUNGAL SPORES” (priority 2023, dated 2024).
Values after ≈ are worked out from the molar mass of the structure shown.

Experiments:
[1] = cited from earlier work
[2] = cited from earlier work; remark: listed apart in the source
white flies = conditions: spores of C. fumosorosea supplemented with low concentrations of the acid in the spray liquid; PCT/EP2022/086495; cited from earlier work
Bemisia tabaci [3] = test: Insecticidal activity against white flies on single-leaf cotton plants, spray application (Example 1, spores of C. javanica strain Apopka 97); assay type: in vivo; design: expected control (Colby) less than the observed level of control: concentration or dose not given beside the values; conditions: for expected control (Colby) less than the observed level of control: in composition with 1,0E+07 spores/ml C. javanica Apopka 97; for Abbott efficacy: spores 1,0E+07 s/ml, cotton, twelve days after treatment, control pure water; for White fly mortality: composition of spores and salt compared with spores alone or the salt alone
Bemisia tabaci [4] = test: Insecticidal activity against white flies on bean plants (Phaseolus vulgaris), microsprayer application (Example 2, spores of C. javanica strain GF 511); assay type: in vivo
Protocol: For testing insecticidal activity against white flies, 9-day-old plants (Phaseolus vulgaris cv. Pérola) with two primary leaves grown with Oxisol (2 L) with fertilizer NPK 5-30-15 were kept in a screenhouse covered with a fine screen fabric (50 mesh). Adult-infested plants with Bemisia tabaci were shaken and placed next to pest-free bean plants (9 days old with two primary leaves) for 6 to 8h to allow oviposition. This exposure provided more than 200 eggs per leaf. Afterwards the plants were transferred to a clean and insect-free room and incubated at 25°C until hatching and development of immobile N2 nymphal stages (10 to 12 days after infestation). Per treatment, seven pots with four bean plants in the two-leave stage were used as biological replicates. The experiment was conducted in a randomized block design in five screenhouse benches, one for each repetition, with the treatments randomized within the block.
Before spraying, whitefly nymphs were checked for good coverage on the leaves and the infected plants were sprayed with the prepared solutions as detailed above. […] The amount is adjusted in function of the size of the primary leaves in order to ensure a good coverage. Afterwards, the plants are incubated under controlled conditions (30 °C and 40 % RH). Fourteen days after treatment, one plant/pot (two leaves per treatment) were destructively evaluated for insect mortality. Nymphal mortality was assessed under a dissecting stereomicroscope (Leica) at x40 magnification. For confirming the fungal infection, a small red dot was marked on the leaf next to the dead nymphs. The leaves were then incubated inside Gerbox box with a wet cotton added to the leaf petiole for four days at room temperature. The dead marked nymphs presenting sporulation (i.e., mycosed nymphs) were considered infected by the fungus.

[5] = Table 2, citric acid 0,05%, ammonium citrate di-basic 0,06%, potassium citrate 0,08%
[6] = Table 1, citric acid 0,1%, glutamic acid monosodic salt 0,08%

O=C(O)C=C(CC(=O)O)C(=O)O [Aconitic acid]
pka(1) [1]: 2,8
water solubility (g/l) at room temperature [2]: 400 g/L (≈ 2300 mM)

O=C(O)c1cccnc1C(=O)O [Chinolinic acid]
water solubility (g/l) at room temperature [2]: 10 g/L (≈ 59.8 mM)

O=C(O)c1cccc(C(=O)O)n1 [Dipicolinic acid]
efficacy of this entomopathogenic fungus against white flies (white flies): increase the efficacy

O=C(O)c1ccc(C(=O)O)nc1 [Isocinchomeronic acid]
pka(1) [1]: 2,31

O=C(O)CC(C(=O)O)C(O)C(=O)O (stereo not shown) [Isocitric acid]
water solubility (g/l) at room temperature [2]: 53 g/L (≈ 276 mM)

CC[C@H](C)[C@H](N)C(=O)O [Isoleucine]
pka(1) [1]: 2,32

O=C(O)c1ccnc(C(=O)O)c1 [Lutidinic acid]
pka(1) [1]: 2,17

O=C(O)CC(O)C(=O)O (stereo not shown) [Malic acid]
water solubility (g/l) at room temperature [2]: 558 g/L (≈ 4160 mM)

N[C@@H](Cc1ccccc1)C(=O)O [Phenylalanine]
water solubility (g/l) at room temperature [2]: >10 g/L

O=C(O)c1ccccn1 [Picolinic acid]
pka(1) [1]: 5,39
water solubility (g/l) at room temperature [2]: 887 g/L (≈ 7200 mM)

N[C@@H](C[SeH])C(=O)O [Selenocysteine]
water solubility (g/l) at room temperature [2]: 400 g/L (≈ 2380 mM)

N[C@@H](Cc1c[nH]c2ccccc12)C(=O)O [Tryptophan]
pka(1) [1]: 2,46
water solubility (g/l) at room temperature [2]: 11,4 g/l

CC(C)[C@H](N)C(=O)O [Valine]
pka(1) [1]: 2,39

O=C(O)CCC(=O)C(=O)O [alpha-ketoglutaric acid]
water solubility (g/l) at room temperature [2]: 100 g/L (≈ 684 mM)

N.N.O=C(O)CC(O)(CC(=O)O)C(=O)O [ammonium citrate di-basic]
expected control (Colby) less than the observed level of control (Bemisia tabaci [3]; Table 2): 27,89%
Abbott efficacy (Bemisia tabaci [3]; [5]): 6,34
White fly mortality (Bemisia tabaci [3]): significantly and synergistically higher

O=C(O)CC(O)(CC(=O)O)C(=O)O [citric acid, Citric acid, reference compound]
Abbott efficacy (Bemisia tabaci [4]; Table 3, spores 1,0E+07 s/ml, citric acid 0,05%, glutamic acid monosodium salt 0,08%, all with 0,05% Tween, bean plants, fourteen days after treatment, control Tween 80 (0.05% v/v)): 3.56
efficacy of this entomopathogenic fungus against white flies (white flies): increase the efficacy
expected control (Colby) less than the observed level of control (Bemisia tabaci [3]; Table 1): 11,63%
Abbott efficacy (Bemisia tabaci [3]; [6]): 9,86
expected control (Colby) less than the observed level of control (Bemisia tabaci [3]; Table 2): 24,27%
Abbott efficacy (Bemisia tabaci [3]; [5]): 7,88

N[C@@H](CCC(=O)O)C(=O)[O-].[Na+] [glutamic acid monosodic salt, glutamic acid monosodium salt]
Abbott efficacy (Bemisia tabaci [4]): 7,57
expected control (Colby) less than the observed level of control (Bemisia tabaci [4]): 11,03%
expected control (Colby) less than the observed level of control (Bemisia tabaci [3]; Table 1): 26,44%
Abbott efficacy (Bemisia tabaci [3]; [6]): -0,34
White fly mortality (Bemisia tabaci [3]): significantly and synergistically higher

O=C([O-])CC(O)(CC(=O)[O-])C(=O)[O-].[K+].[K+].[K+] [potassium citrate]
expected control (Colby) less than the observed level of control (Bemisia tabaci [3]; Table 2): 11,7%
Abbott efficacy (Bemisia tabaci [3]; [5]): 1,74
White fly mortality (Bemisia tabaci [3]): significantly and synergistically higher
